Test results reported in patent US9113629B2, “4-amino-6-(4-substituted-phenyl)-picolinates and 6-amino-2-(4-substituted-phenyl)-pyrimidine-4-carboxylates and their use as herbicides” (DOW AGROSCIENCES LLC, priority 2013, dated 2015).

tested on: not given; test: not given; settings: not given

melting point	SMILES
145 to 146 °C	Cc1ccc(-c2nc(C(=O)O)c(Cl)c(N)c2F)cc1F [Compound 212]

tested on: Key Grass and Sedge Weeds as well as Grass Crops; test: Post-emergent Test II herbicidal activity (Table 6); assay type: in vivo; settings: post-emergence, 336 h, CYPES: yellow nutsedge (Cyperus esculentus), 70 g ai/ha, read-out: Visual Growth Reduction (%) 14 Days After Application, CYPES
In short: (§1)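 Plants grown in Metro-Mix 360 (pH 6.0–6.8) in a greenhouse (~15 h photoperiod, 23–29 °C day) to first or second true leaf stage, then sprayed with compound in acetone/DMSO/aqueous crop-oil-surfactant carrier at 187 L/ha by track sprayer. Injury visually scored 0–100% versus untreated plants after 14 d.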

SMILES	pest or weed control at 70 g/ha
Cc1ccc(-c2nc(C(=O)O)c(Cl)c(N)c2F)cc1F [Compound 212]	0 to 29%

same assay, conditions: post-emergence, 336 h, CYPES: yellow nutsedge (Cyperus esculentus), 140 g ai/ha, read-out: Visual Growth Reduction (%) 14 Days After Application, CYPES

SMILES	pest or weed control at 140 g/ha
Cc1ccc(-c2nc(C(=O)O)c(Cl)c(N)c2F)cc1F [Compound 212]	30 to 44%

same assay, conditions: post-emergence, 336 h, DIGSA: crabgrass (Digitaria sanguinalis), 70 g ai/ha, read-out: Visual Growth Reduction (%) 14 Days After Application, DIGSA

SMILES	pest or weed control at 70 g/ha
Cc1ccc(-c2nc(C(=O)O)c(Cl)c(N)c2F)cc1F [Compound 212]	0 to 29%

same assay, conditions: post-emergence, 336 h, DIGSA: crabgrass (Digitaria sanguinalis), 140 g ai/ha, read-out: Visual Growth Reduction (%) 14 Days After Application, DIGSA

SMILES	pest or weed control at 140 g/ha
Cc1ccc(-c2nc(C(=O)O)c(Cl)c(N)c2F)cc1F [Compound 212]	30 to 44%

same assay, conditions: post-emergence, 336 h, ECHCG: barnyardgrass (Echinochloa crus-galli), 70 g ai/ha, read-out: Visual Growth Reduction (%) 14 Days After Application, ECHCG

SMILES	pest or weed control at 70 g/ha
Cc1ccc(-c2nc(C(=O)O)c(Cl)c(N)c2F)cc1F [Compound 212]	75 to 84%

same assay, conditions: post-emergence, 336 h, ECHCG: barnyardgrass (Echinochloa crus-galli), 140 g ai/ha, read-out: Visual Growth Reduction (%) 14 Days After Application, ECHCG

SMILES	pest or weed control at 140 g/ha
Cc1ccc(-c2nc(C(=O)O)c(Cl)c(N)c2F)cc1F [Compound 212]	85 to 94%

same assay, conditions: post-emergence, 336 h, ORYSA: rice (Oryza sativa), crop, 70 g ai/ha, read-out: Visual Growth Reduction (%) 14 Days After Application, ORYSA

SMILES	pest or weed control at 70 g/ha
Cc1ccc(-c2nc(C(=O)O)c(Cl)c(N)c2F)cc1F [Compound 212]	60 to 74%

same assay, conditions: post-emergence, 336 h, ORYSA: rice (Oryza sativa), crop, 140 g ai/ha, read-out: Visual Growth Reduction (%) 14 Days After Application, ORYSA

SMILES	pest or weed control at 140 g/ha
Cc1ccc(-c2nc(C(=O)O)c(Cl)c(N)c2F)cc1F [Compound 212]	60 to 74%

same assay, conditions: post-emergence, 336 h, SETFA: giant foxtail (Setaria faberi), 70 g ai/ha, read-out: Visual Growth Reduction (%) 14 Days After Application, SETFA

SMILES	pest or weed control at 70 g/ha
Cc1ccc(-c2nc(C(=O)O)c(Cl)c(N)c2F)cc1F [Compound 212]	45 to 59%

same assay, conditions: post-emergence, 336 h, SETFA: giant foxtail (Setaria faberi), 140 g ai/ha, read-out: Visual Growth Reduction (%) 14 Days After Application, SETFA

SMILES	pest or weed control at 140 g/ha
Cc1ccc(-c2nc(C(=O)O)c(Cl)c(N)c2F)cc1F [Compound 212]	75 to 84%

same assay, conditions: post-emergence, 336 h, SORVU: grain sorghum (Sorghum vulgare), 70 g ai/ha, read-out: Visual Growth Reduction (%) 14 Days After Application, SORVU

SMILES	pest or weed control at 70 g/ha
Cc1ccc(-c2nc(C(=O)O)c(Cl)c(N)c2F)cc1F [Compound 212]	60 to 74%

same assay, conditions: post-emergence, 336 h, SORVU: grain sorghum (Sorghum vulgare), 140 g ai/ha, read-out: Visual Growth Reduction (%) 14 Days After Application, SORVU

SMILES	pest or weed control at 140 g/ha
Cc1ccc(-c2nc(C(=O)O)c(Cl)c(N)c2F)cc1F [Compound 212]	75 to 84%

same assay, conditions: post-emergence, 336 h, TRZSS (wheat, Triticum aestivum), crop, 70 g ai/ha, read-out: Visual Growth Reduction (%) 14 Days After Application, TRZSS

SMILES	pest or weed control at 70 g/ha
Cc1ccc(-c2nc(C(=O)O)c(Cl)c(N)c2F)cc1F [Compound 212]	60 to 74%

same assay, conditions: post-emergence, 336 h, TRZSS (wheat, Triticum aestivum), crop, 140 g ai/ha, read-out: Visual Growth Reduction (%) 14 Days After Application, TRZSS

SMILES	pest or weed control at 140 g/ha
Cc1ccc(-c2nc(C(=O)O)c(Cl)c(N)c2F)cc1F [Compound 212]	60 to 74%

same assay, conditions: post-emergence, 336 h, ZEAMX: maize, corn (Zea mays), crop, 70 g ai/ha, read-out: Visual Growth Reduction (%) 14 Days After Application, ZEAMX

SMILES	pest or weed control at 70 g/ha
Cc1ccc(-c2nc(C(=O)O)c(Cl)c(N)c2F)cc1F [Compound 212]	75 to 84%

same assay, conditions: post-emergence, 336 h, ZEAMX: maize, corn (Zea mays), crop, 140 g ai/ha, read-out: Visual Growth Reduction (%) 14 Days After Application, ZEAMX

SMILES	pest or weed control at 140 g/ha
Cc1ccc(-c2nc(C(=O)O)c(Cl)c(N)c2F)cc1F [Compound 212]	85 to 94%

tested on: Key Broadleaf Weed and Crop Species; test: Post-emergent Test II herbicidal activity (Table 5); assay type: in vivo; settings: post-emergence, 336 h; ABUTH: velvetleaf (Abutilon theophrasti); application rate 70 g ai/ha; 14 days after application; read-out: Visual Growth Reduction (%) 14 Days After Application, ABUTH
In short: as §1

SMILES	pest or weed control at 70 g/ha
Cc1ccc(-c2nc(C(=O)O)c(Cl)c(N)c2F)cc1F [Compound 212]	95 to 100%

same assay, conditions: post-emergence, 336 h; ABUTH: velvetleaf (Abutilon theophrasti); application rate 140 g ai/ha; 14 days after application; read-out: Visual Growth Reduction (%) 14 Days After Application, ABUTH

SMILES	pest or weed control at 140 g/ha
Cc1ccc(-c2nc(C(=O)O)c(Cl)c(N)c2F)cc1F [Compound 212]	95 to 100%

same assay, conditions: post-emergence, 336 h; AMARE: redroot pigweed (Amaranthus retroflexus); application rate 70 g ai/ha; 14 days after application; read-out: Visual Growth Reduction (%) 14 Days After Application, AMARE

SMILES	pest or weed control at 70 g/ha
Cc1ccc(-c2nc(C(=O)O)c(Cl)c(N)c2F)cc1F [Compound 212]	95 to 100%

same assay, conditions: post-emergence, 336 h; AMARE: redroot pigweed (Amaranthus retroflexus); application rate 140 g ai/ha; 14 days after application; read-out: Visual Growth Reduction (%) 14 Days After Application, AMARE

SMILES	pest or weed control at 140 g/ha
Cc1ccc(-c2nc(C(=O)O)c(Cl)c(N)c2F)cc1F [Compound 212]	95 to 100%

same assay, conditions: post-emergence, 336 h; BRSNN: oilseed-rape, canola (Brassica napus); application rate 70 g ai/ha; 14 days after application; read-out: Visual Growth Reduction (%) 14 Days After Application, BRSNN

SMILES	pest or weed control at 70 g/ha
Cc1ccc(-c2nc(C(=O)O)c(Cl)c(N)c2F)cc1F [Compound 212]	95 to 100%

same assay, conditions: post-emergence, 336 h; BRSNN: oilseed-rape, canola (Brassica napus); application rate 140 g ai/ha; 14 days after application; read-out: Visual Growth Reduction (%) 14 Days After Application, BRSNN

SMILES	pest or weed control at 140 g/ha
Cc1ccc(-c2nc(C(=O)O)c(Cl)c(N)c2F)cc1F [Compound 212]	95 to 100%

same assay, conditions: post-emergence, 336 h; CHEAL: lambsquarters (Chenopodium album); application rate 70 g ai/ha; 14 days after application; read-out: Visual Growth Reduction (%) 14 Days After Application, CHEAL

SMILES	pest or weed control at 70 g/ha
Cc1ccc(-c2nc(C(=O)O)c(Cl)c(N)c2F)cc1F [Compound 212]	95 to 100%

same assay, conditions: post-emergence, 336 h; CHEAL: lambsquarters (Chenopodium album); application rate 140 g ai/ha; 14 days after application; read-out: Visual Growth Reduction (%) 14 Days After Application, CHEAL

SMILES	pest or weed control at 140 g/ha
Cc1ccc(-c2nc(C(=O)O)c(Cl)c(N)c2F)cc1F [Compound 212]	95 to 100%

same assay, conditions: post-emergence, 336 h; EPHHL: wild poinsettia (Euphorbia heterophylla); application rate 70 g ai/ha; 14 days after application; read-out: Visual Growth Reduction (%) 14 Days After Application, EPHHL

SMILES	pest or weed control at 70 g/ha
Cc1ccc(-c2nc(C(=O)O)c(Cl)c(N)c2F)cc1F [Compound 212]	95 to 100%

same assay, conditions: post-emergence, 336 h; EPHHL: wild poinsettia (Euphorbia heterophylla); application rate 140 g ai/ha; 14 days after application; read-out: Visual Growth Reduction (%) 14 Days After Application, EPHHL

SMILES	pest or weed control at 140 g/ha
Cc1ccc(-c2nc(C(=O)O)c(Cl)c(N)c2F)cc1F [Compound 212]	95 to 100%

same assay, conditions: post-emergence, 336 h; HELAN: sunflower (Helianthus annuus); application rate 70 g ai/ha; 14 days after application; read-out: Visual Growth Reduction (%) 14 Days After Application, HELAN

SMILES	pest or weed control at 70 g/ha
Cc1ccc(-c2nc(C(=O)O)c(Cl)c(N)c2F)cc1F [Compound 212]	95 to 100%

same assay, conditions: post-emergence, 336 h; HELAN: sunflower (Helianthus annuus); application rate 140 g ai/ha; 14 days after application; read-out: Visual Growth Reduction (%) 14 Days After Application, HELAN

SMILES	pest or weed control at 140 g/ha
Cc1ccc(-c2nc(C(=O)O)c(Cl)c(N)c2F)cc1F [Compound 212]	95 to 100%

same assay, conditions: post-emergence, 336 h; VIOTR: wild pansy (Viola tricolor); application rate 70 g ai/ha; 14 days after application; read-out: Visual Growth Reduction (%) 14 Days After Application, VIOTR

SMILES	pest or weed control at 70 g/ha
Cc1ccc(-c2nc(C(=O)O)c(Cl)c(N)c2F)cc1F [Compound 212]	0 to 29%

same assay, conditions: post-emergence, 336 h; VIOTR: wild pansy (Viola tricolor); application rate 140 g ai/ha; 14 days after application; read-out: Visual Growth Reduction (%) 14 Days After Application, VIOTR

SMILES	pest or weed control at 140 g/ha
Cc1ccc(-c2nc(C(=O)O)c(Cl)c(N)c2F)cc1F [Compound 212]	0 to 29%
